Columns and labels:
Assay type in all cases: cell-based, human
heavy OG cells [1] = assay: Chondrogenic differentiation markers of heavy OG cells cultured in IGF2 inhibitor-treated medium
Source text: Accordingly, heavy OG cells were induced to differentiate into a chondrogenic pellet while performing treatment with chromeceptin under the conditions of Example <16-1>, during which the OG cells were obtained, and mRNA was extracted therefrom and used to synthesize cDNA. Using the synthesized cDNA as a template, expression levels of SOX9, COL2A1, COL10A1, and IGF2 were quantitatively analyzed.

heavy OG cells [2] = assay: Chondrocyte markers in chondrogenic pellet differentiated in IGF2 inhibitor-treated medium; conditions: 2 mM chromeceptin, treatment after aggregation compared with before aggregation
Experimental: First, among the OG cells obtained in the step iii) of [Example 12], the heavy cells were cultured for 3 days while treating the medium with chromeceptin at a concentration of 2 mM, in the course of inducing differentiation into a chondrogenic pellet according to the step iv). Experimental groups were divided into two groups, that is, the experimental group (before aggregation) in which differentiation into chondrocytes had been induced by performing treatment with chromeceptin from the beginning of formation of a chondrogenic pellet, and the experimental group (after aggregation) in which differentiation into chondrocytes had been induced by performing treatment with chromeceptin from 7 days after induction of formation of a chondrogenic pellet. The differentiated chondrogenic pellets were respectively obtained therefrom. Then, mRNA was extracted from each of the obtained chondrogenic pellets, and the expression levels of COL2A1, SOX9, COL1A1 and COL10A1 were checked.

heavy OG cells [3] = assay: Proliferation of heavy OG cells cultured in IGF2 inhibitor-treated medium
Experimental: First, among the OG cells obtained in the step iii) of [Example 12], the heavy cells were cultured for 3 days while treating the medium with chromeceptin at a concentration of 2 nM to 2 μM, in the course of inducing differentiation into a chondrogenic pellet according to the step iv). Then, morphology of the cells was observed over the treatment time, and the number of the proliferated cells was counted.

Compound: CN(C)c1ccc2c(c1)OC(N)=C(C#N)C2c1cccc(C(F)(F)F)c1 (stereo not drawn) [chromeceptin]
- expression level of SOX9 (heavy OG cells [1]; 2 μM chromeceptin, compared with untreated control (Normal Ctrl)): remarkably increases
- expression level of IGF2 in the OG cells (heavy OG cells [1]; chromeceptin 2 nM to 2 μM): decreases with increased treatment concentration
- expression level of SOX9 (heavy OG cells [1]; chromeceptin 2 nM to 2 μM): significantly increases with increased treatment concentration
- expression level of SOX9 in chondrogenic pellet (heavy OG cells [2]): significantly increased
- decrease of the number of OG cells (heavy OG cells [3]; 2 μM chromeceptin, after 72 hours, compared with untreated control): ≥ 3 times
- degree of proliferation of the cells (heavy OG cells [3]; chromeceptin 2 nM to 2 μM, 3 days): decreases with increased treatment concentration

— patent US11624056B2, “Method for producing cartilage cells induced to be differentiated from stem cells” (YiPCELL Inc., priority 2017, dated 2023)
